From patent US6358883B1, “Pesticidal and parasiticidal use of 1-aryl-1-(substituted thio, sulfinyl and sulfonyl)-2-nitroethane compounds” (American Cyanamid Company, priority 1998, dated 2002)

What was measured:
Assay type in all cases: in vivo
[1] = system: Diabrotica undecimpunctata howardi, eggs-southern corn rootworm (SCR-Eggs); assay: Southern corn rootworm eggs (SCR-Eggs) treated diet test; set-up: key: 0 = no effect; 1 = 10-25% kill; 2 = 26-35% kill; 3 = 36-45% kill; 4 = 46-55% kill; 5 = 56-65% kill; 6 = 66-75% kill; 7 = 76-85% kill; 8 = 86-99% kill; 9 = 100% kill; settings: mortality after 7 days
Procedure, shortened: (§1)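 Eggs of S. eridania or D. undecimpunctata howardi were set on artificial diet pretreated with test solution (10,000 ppm stock in 35% aqueous acetone, water dilutions) and dried. Wells were sealed with vented clear covers, and mortality was scored at day 7.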

[2] = system: C. elegans (Bristol strain); assay: Evaluation of test compounds against C. elegans (motility, 96-well plate); set-up: key: 9=complete kill in 4 hours; 8=complete kill in 24 hours; 7=markedly reduced motility in approximately 95% of worms in 24 hours; 0=normal motility, same as controls; settings: motility at 4 and 24 hours
Procedure, shortened: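 Activity is a semi-quantitative visual score of adult and larval movement, read at 4 h and 24 h post-immersion at 20 °C after gentle tapping. Worms were suspended in Na buffer in wells where compound, dissolved in 80% acetone, had been evaporated.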

[3] = system: Tetranychus urticae (OP-resistant strain), 2-spotted spider mite (TSM); assay: 2-spotted spider mite (TSM) plant dip test; set-up: key: 0 = no effect; 1 = 10-25% kill; 2 = 26-35% kill; 3 = 36-45% kill; 4 = 46-55% kill; 5 = 56-65% kill; 6 = 66-75% kill; 7 = 76-85% kill; 8 = 86-99% kill; 9 = 100% kill; settings: mortality after 2 days
Procedure, shortened: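 Mortality counted 2 days after a 3 s agitated dip of infested Sieva lima bean plants. Compound came from a 10,000 ppm stock in 35% aqueous acetone, with further dilution in water. Each primary leaf carried about 100 OP-resistant mites, allowed to settle ~2 h before dipping.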

[4] = system: M. incognita (Root Knot Nematode) larvae; assay: Evaluation of test compounds against M. incognita larvae in microtiter plate wells (movement score); settings: larvae scored for movement after 20-24 hours; also: key: A score of '9' indicates inactive worms with a straight, sticklike morphology; A score of '8' indicates inactive worms with a limp, curled or curved morphology; A score of '7' indicates dead/paralyzed worms after 72 hours
Procedure, shortened: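 Scoring is by larval movement: dead or paralyzed worms count as positive, and a "7" means dead/paralyzed at 72 hours. Freshly hatched root-knot larvae (50-65 per well) in buffered S Medium were incubated with compounds under plate sealers for 20-24 h before the first read.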

[5] = system: Spodoptera eridania, 2nd instar larvae, southern armyworm (SAW); assay: Southern armyworm (SAW) leaf dip test; set-up: key: 0 = no effect; 1 = 10-25% kill; 2 = 26-35% kill; 3 = 36-45% kill; 4 = 46-55% kill; 5 = 56-65% kill; 6 = 66-75% kill; 7 = 76-85% kill; 8 = 86-99% kill; 9 = 100% kill
Procedure, shortened: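 Ten 2nd instar caterpillars feed on a Sieva lima bean leaf that was dipped 3 seconds in test solution (stock 10,000 ppm in 35% acetone/water, water-diluted). Five days later, larvae are assessed for death, feeding reduction or abnormal molting.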

[6] = system: Spodoptera eridania, eggs-southern armyworm (SAW-Eggs); assay: Southern armyworm eggs (SAW-Eggs) treated diet test; set-up: key: 0 = no effect; 1 = 10-25% kill; 2 = 26-35% kill; 3 = 36-45% kill; 4 = 46-55% kill; 5 = 56-65% kill; 6 = 66-75% kill; 7 = 76-85% kill; 8 = 86-99% kill; 9 = 100% kill; settings: mortality after 7 days
Procedure, shortened: as §1

[7] = system: Diabrotica virgifera virgifera Leconte, 2nd instar western corn rootworm (WCR); assay: Western corn rootworm (WCR) soil test; set-up: key: 0 = no effect; 1 = 10-25% kill; 2 = 26-35% kill; 3 = 36-45% kill; 4 = 46-55% kill; 5 = 56-65% kill; 6 = 66-75% kill; 7 = 76-85% kill; 8 = 86-99% kill; 9 = 100% kill
Procedure, shortened: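 Ten 2nd-instar rootworm larvae are placed in jars of moist soil with millet seed and talc treated with 1.25 mg active ingredient (roughly 50 kg/ha) from a 35% acetone-in-water solution. After 5 days mortality is scored, counting missing larvae as dead.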

[8] = system: Aphis gossypii, cotton aphid (CA); assay: Cotton aphid (CA) cotyledon dip test; set-up: key: 0 = no effect; 1 = 10-25% kill; 2 = 26-35% kill; 3 = 36-45% kill; 4 = 46-55% kill; 5 = 56-65% kill; 6 = 66-75% kill; 7 = 76-85% kill; 8 = 86-99% kill; 9 = 100% kill; settings: mortality after 5 days
Procedure, shortened: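 Mortality was scored 5 days after dipping aphid-infested cotyledons, colonised overnight from a transfer leaf, into water dilutions of a 35% acetone/water compound solution.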

COC(=O)CSC(C[N+](=O)[O-])c1ccc2c(c1)OCO2 (centres unmarked) [Example 18]
SCR Eggs (1000 ppm) rating [1]: 0 | Rating Against C. elegans (150 ppm) [2]: 9 | TSM (300 ppm) rating [3]: 0 | M. incognita (150 ppm) score [4]: 9 | SAW (300 ppm) rating [5]: 0 | SAW Eggs (300 ppm) rating [6]: 0 | WCR (50 ppm) rating [7]: 0 | CA (300 ppm) rating [8]: 9 (9 = 100% kill)

CCOC(=O)CSC(C[N+](=O)[O-])c1ccc2c(c1)OCO2 (centres unmarked) [Example 19]
SCR Eggs (1000 ppm) rating [1]: 0 | Rating Against C. elegans (150 ppm) [2]: 9 | TSM (300 ppm) rating [3]: 0 | M. incognita (150 ppm) score [4]: 9 | SAW (300 ppm) rating [5]: 0 | SAW Eggs (300 ppm) rating [6]: 0 | WCR (50 ppm) rating [7]: 3 (3 = 36-45% kill) | CA (300 ppm) rating [8]: 0

CCCCOC(=O)CSC(C[N+](=O)[O-])c1ccc2c(c1)OCO2 (centres unmarked) [Example 20]
SCR Eggs (1000 ppm) rating [1]: 0 | Rating Against C. elegans (150 ppm) [2]: 8 | TSM (300 ppm) rating [3]: 0 | M. incognita (150 ppm) score [4]: 9 | SAW (300 ppm) rating [5]: 0 | SAW Eggs (300 ppm) rating [6]: 0 | WCR (50 ppm) rating [7]: 0 | CA (300 ppm) rating [8]: 0

CC(C)CCCCCOC(=O)CSC(C[N+](=O)[O-])c1ccc2c(c1)OCO2 (centres unmarked) [Example 21]
SCR Eggs (1000 ppm) rating [1]: 0 | Rating Against C. elegans (150 ppm) [2]: 0 | TSM (300 ppm) rating [3]: 0 | M. incognita (150 ppm) score [4]: 8 | SAW (300 ppm) rating [5]: 0 | SAW Eggs (300 ppm) rating [6]: 0 | WCR (50 ppm) rating [7]: 0 | CA (300 ppm) rating [8]: 7 (7 = 76-85% kill)

CCCCC(CC)COC(=O)CSC(C[N+](=O)[O-])c1ccc2c(c1)OCO2 (centres unmarked) [Example 22]
SCR Eggs (1000 ppm) rating [1]: 0 | Rating Against C. elegans (150 ppm) [2]: 0 | TSM (300 ppm) rating [3]: 0 | M. incognita (150 ppm) score [4]: 0 | SAW (300 ppm) rating [5]: 0 | SAW Eggs (300 ppm) rating [6]: 0 | WCR (50 ppm) rating [7]: 0 | CA (300 ppm) rating [8]: 0

O=[N+]([O-])CC(SCc1ccccc1)c1ccc2c(c1)OCO2 (centres unmarked) [Example 23]
SCR Eggs (1000 ppm) rating [1]: 9 (9 = 100% kill) | Rating Against C. elegans (150 ppm) [2]: 7 | TSM (300 ppm) rating [3]: 0 | M. incognita (150 ppm) score [4]: 8 | SAW (300 ppm) rating [5]: 8 (8 = 86-99% kill) | SAW Eggs (300 ppm) rating [6]: 9 (9 = 100% kill) | WCR (50 ppm) rating [7]: 4 (4 = 46-55% kill) | CA (300 ppm) rating [8]: 4 (4 = 46-55% kill)

CCCSC(C[N+](=O)[O-])c1ccc2c(c1)OCO2 (centres unmarked) [Example 24]
SCR Eggs (1000 ppm) rating [1]: 0 | Rating Against C. elegans (150 ppm) [2]: 8 | TSM (300 ppm) rating [3]: 0 | M. incognita (150 ppm) score [4]: 9 | SAW (300 ppm) rating [5]: 0 | SAW Eggs (300 ppm) rating [6]: 0 | WCR (50 ppm) rating [7]: 0 | CA (300 ppm) rating [8]: 0

COC(=O)CSC(C[N+](=O)[O-])c1ccc(OC)cc1 (centres unmarked) [Example 47]
SCR Eggs (1000 ppm) rating [1]: 0 | Rating Against C. elegans (150 ppm) [2]: 9 | TSM (300 ppm) rating [3]: 4 (4 = 46-55% kill) | M. incognita (150 ppm) score [4]: 9 | SAW (300 ppm) rating [5]: 0 | SAW Eggs (300 ppm) rating [6]: 0 | WCR (50 ppm) rating [7]: 4 (4 = 46-55% kill) | CA (300 ppm) rating [8]: 0

CCOC(=O)CSC(C[N+](=O)[O-])c1ccc(OC)cc1 (centres unmarked) [Example 48]
SCR Eggs (1000 ppm) rating [1]: 0 | Rating Against C. elegans (150 ppm) [2]: 9 | TSM (300 ppm) rating [3]: 0 | M. incognita (150 ppm) score [4]: 9 | SAW (300 ppm) rating [5]: 0 | SAW Eggs (300 ppm) rating [6]: 0 | WCR (50 ppm) rating [7]: 0 | CA (300 ppm) rating [8]: 0

CCCCOC(=O)CSC(C[N+](=O)[O-])c1ccc(OC)cc1 (centres unmarked) [Example 49]
SCR Eggs (1000 ppm) rating [1]: 0 | Rating Against C. elegans (150 ppm) [2]: 9 | TSM (300 ppm) rating [3]: 0 | M. incognita (150 ppm) score [4]: 9 | SAW (300 ppm) rating [5]: 0 | SAW Eggs (300 ppm) rating [6]: 0 | WCR (50 ppm) rating [7]: 0 | CA (300 ppm) rating [8]: 0

COc1ccc(C(C[N+](=O)[O-])SCC(=O)OCCCCCC(C)C)cc1 (centres unmarked) [Example 50]
SCR Eggs (1000 ppm) rating [1]: 0 | Rating Against C. elegans (150 ppm) [2]: 7 | TSM (300 ppm) rating [3]: 0 | M. incognita (150 ppm) score [4]: 0 | SAW (300 ppm) rating [5]: 0 | SAW Eggs (300 ppm) rating [6]: 9 (9 = 100% kill) | WCR (50 ppm) rating [7]: 0 | CA (300 ppm) rating [8]: 0

CCCCC(CC)COC(=O)CSC(C[N+](=O)[O-])c1ccc(OC)cc1 (centres unmarked) [Example 51]
SCR Eggs (1000 ppm) rating [1]: 8 (8 = 86-99% kill) | Rating Against C. elegans (150 ppm) [2]: 0 | TSM (300 ppm) rating [3]: 0 | M. incognita (150 ppm) score [4]: 0 | SAW (300 ppm) rating [5]: 0 | SAW Eggs (300 ppm) rating [6]: 9 (9 = 100% kill) | WCR (50 ppm) rating [7]: 4 (4 = 46-55% kill) | CA (300 ppm) rating [8]: 0

COc1ccc(C(C[N+](=O)[O-])SCc2ccccc2)cc1 (centres unmarked) [Example 52]
SCR Eggs (1000 ppm) rating [1]: 0 | Rating Against C. elegans (150 ppm) [2]: 9 | TSM (300 ppm) rating [3]: 0 | M. incognita (150 ppm) score [4]: 9 | SAW (300 ppm) rating [5]: 0 | SAW Eggs (300 ppm) rating [6]: 0 | WCR (50 ppm) rating [7]: 4 (4 = 46-55% kill) | CA (300 ppm) rating [8]: 0

CCCSC(C[N+](=O)[O-])c1ccc(OC)cc1 (centres unmarked) [Example 53]
SCR Eggs (1000 ppm) rating [1]: 0 | Rating Against C. elegans (150 ppm) [2]: 9 | TSM (300 ppm) rating [3]: 0 | M. incognita (150 ppm) score [4]: 9 | SAW (300 ppm) rating [5]: 4 (4 = 46-55% kill) | SAW Eggs (300 ppm) rating [6]: 0 | WCR (50 ppm) rating [7]: 0 | CA (300 ppm) rating [8]: 0

C=CCSC(C[N+](=O)[O-])c1ccc(OC)cc1 (centres unmarked) [Example 54]
SCR Eggs (1000 ppm) rating [1]: 0 | Rating Against C. elegans (150 ppm) [2]: 9 | TSM (300 ppm) rating [3]: 0 | M. incognita (150 ppm) score [4]: 9 | SAW (300 ppm) rating [5]: 0 | SAW Eggs (300 ppm) rating [6]: 0 | WCR (50 ppm) rating [7]: 5 (5 = 56-65% kill) | CA (300 ppm) rating [8]: 0

COC(=O)CSC(C[N+](=O)[O-])c1cccc(OC)c1 (centres unmarked) [Example 55]
SCR Eggs (1000 ppm) rating [1]: 0 | Rating Against C. elegans (150 ppm) [2]: 8 | TSM (300 ppm) rating [3]: 0 | M. incognita (150 ppm) score [4]: 9 | SAW (300 ppm) rating [5]: 4 (4 = 46-55% kill) | SAW Eggs (300 ppm) rating [6]: 0 | WCR (50 ppm) rating [7]: 0 | CA (300 ppm) rating [8]: 0

CCOC(=O)CSC(C[N+](=O)[O-])c1cccc(OC)c1 (centres unmarked) [Example 56]
SCR Eggs (1000 ppm) rating [1]: 0 | Rating Against C. elegans (150 ppm) [2]: 8 | TSM (300 ppm) rating [3]: 5 (5 = 56-65% kill) | M. incognita (150 ppm) score [4]: 9 | SAW (300 ppm) rating [5]: 0 | SAW Eggs (300 ppm) rating [6]: 0 | WCR (50 ppm) rating [7]: 0 | CA (300 ppm) rating [8]: 0

CCCCOC(=O)CSC(C[N+](=O)[O-])c1cccc(OC)c1 (centres unmarked) [Example 57]
SCR Eggs (1000 ppm) rating [1]: 0 | Rating Against C. elegans (150 ppm) [2]: 7 | TSM (300 ppm) rating [3]: 0 | M. incognita (150 ppm) score [4]: 9 | SAW (300 ppm) rating [5]: 0 | SAW Eggs (300 ppm) rating [6]: 0 | WCR (50 ppm) rating [7]: 0 | CA (300 ppm) rating [8]: 0

COc1cccc(C(C[N+](=O)[O-])SCC(=O)OCCCCCC(C)C)c1 (centres unmarked) [Example 58]
SCR Eggs (1000 ppm) rating [1]: 0 | Rating Against C. elegans (150 ppm) [2]: 0 | TSM (300 ppm) rating [3]: 0 | M. incognita (150 ppm) score [4]: 0 | SAW (300 ppm) rating [5]: 0 | SAW Eggs (300 ppm) rating [6]: 0 | WCR (50 ppm) rating [7]: 0 | CA (300 ppm) rating [8]: 0
